In patent publication US12577240B2, “Antiviral heteroaryl ketone derivatives” (Pfizer Inc., priority 2020, dated 2026):

Columns and labels:
[1] = biological target: T1, full length SARS-CoV-2 3CL protease (Severe acute respiratory syndrome coronavirus 2, UniProt P0DTD1); assay: SARS-CoV-2 Coronavirus 3C Protease FRET Assay; assay type: biochemical; conditions: 15 nM enzyme, 25 μM peptide substrate, 60 minutes at 23° C., Morrison equation fit; read-out: FRET Assay Geometric Mean Ki
T1 construct: measures the activity of full length SARS-CoV-2 3CL protease

[2] = test system: SARS-CoV-2 (USA_WA1/2020) in VeroE6 cells enriched for hACE2 expression; assay: Antiviral Activity from SARS-CoV-2 Infection (cytopathic effect, Cell Titer-Glo cell viability); assay type: cell-based; conditions: Severe acute respiratory syndrome coronavirus 2, Vero C1008, 72 h; VeroE6 cells enriched for hACE2, multiplicity of infection 0.002, 3-day incubation; alone or with 2 μM CP-100356 (table does not say which); read-out: Antiviral Assay Geometric Mean EC50

SMILES | Ki [1] | EC50 [2]
CC(C)[C@H](NS(C)(=O)=O)C(=O)N1CC2(CC2)C[C@H]1C(=O)N[C@@H](C[C@@H]1CCNC1=O)C(=O)c1nc2ccccc2s1 [Example 1, (6S)—N-{(2S)-1-(1,3-Benzothiazol-2-yl)-1-oxo-3-[(3S)-2-oxopyrrolidin-3-yl]propan-2-yl}-5-{(2S)-3-methyl-2-[(methylsulfonyl)amino]butanoyl}-5-azaspiro[2.4]heptane-6-carboxamide] | 20.2 nM | 5680 nM
CC(C)(C)[C@H](NS(=O)(=O)C(C)(C)C)C(=O)N1C[C@H]2[C@@H]([C@H]1C(=O)N[C@@H](C[C@@H]1CCNC1=O)C(=O)c1nc3ccccc3s1)C2(C)C [Example 11, (1R,2S,5S)-N-{(2S)-1-(1,3-benzothiazol-2-yl)-1-oxo-3-[(3S)-2-oxopyrrolidin-3-yl]propan-2-yl}-3-[N-(tert-butylsulfonyl)-3-methyl-L-valyl]-6,6-dimethyl-3-azabicyclo[3.1.0]hexane-2-carboxamide] | 13.7 nM | 155 nM
CC(C)[C@H](NS(=O)(=O)C(C)(C)C)C(=O)N1C[C@H]2[C@@H]([C@H]1C(=O)N[C@@H](C[C@@H]1CCNC1=O)C(=O)c1nc3ccccc3s1)C2(C)C [Example 12, (1R,2S,5S)-N-{(2S)-1-(1,3-benzothiazol-2-yl)-1-oxo-3-[(3S)-2-oxopyrrolidin-3-yl]propan-2-yl}-3-[N-(tert-butylsulfonyl)-L-valyl]-6,6-dimethyl-3-azabicyclo[3.1.0]hexane-2-carboxamide] | 34.2 nM | 
COc1cccc2[nH]c(C(=O)N3C[C@H]4[C@@H]([C@H]3C(=O)N[C@@H](C[C@@H]3CCNC3=O)C(=O)c3nc5ccccc5s3)C4(C)C)cc12 [Example 2, (1R,2S,5S)—N-{(2S)-1-(1,3-Benzothiazol-2-yl)-1-oxo-3-[(3S)-2-oxopyrrolidin-3-yl]propan-2-yl}-3-[(4-methoxy-1H-indol-2-yl)carbonyl]-6,6-dimethyl-3-azabicyclo[3.1.0]hexane-2-carboxamide] | 206 nM | 
CC1(C)[C@@H]2[C@@H](C(=O)N[C@@H](C[C@@H]3CCNC3=O)C(=O)c3nc4ccccc4s3)N(C(=O)[C@H]3CCCO3)C[C@@H]21 [Example 8, (1R,2S,5S)-N-{(2S)-1-(1,3-benzothiazol-2-yl)-1-oxo-3-[(3S)-2-oxopyrrolidin-3-yl]propan-2-yl}-6,6-dimethyl-3-[(2R)-tetrahydrofuran-2-ylcarbonyl]-3-azabicyclo[3.1.0]hexane-2-carboxamide] | 6330 nM | 
O=C1NCC[C@H]1C[C@H](NC(=O)[C@@H]1CC2(CC2)CN1C(=O)[C@H]1CCCO1)C(=O)c1nc2ccccc2s1 [Example 9, (6S)-N-{(2S)-1-(1,3-benzothiazol-2-yl)-1-oxo-3-[(3S)-2-oxopyrrolidin-3-yl]propan-2-yl}-5-[(2R)-tetrahydrofuran-2-ylcarbonyl]-5-azaspiro[2.4]heptane-6-carboxamide] | > 10000 nM | 
CCS(=O)(=O)N[C@H](C(=O)N1C[C@H]2[C@@H]([C@H]1C(=O)N[C@@H](C[C@@H]1CCNC1=O)C(=O)c1nc3ccccc3s1)C2(C)C)C(C)C [Example 16, (1R,2S,5S)-N-{(2S)-1-(1,3-benzothiazol-2-yl)-1-oxo-3-[(3S)-2-oxopyrrolidin-3-yl]propan-2-yl}-3-[N-(ethylsulfonyl)-L-valyl]-6,6-dimethyl-3-azabicyclo[3.1.0]hexane-2-carboxamide] | 10.3 nM | 
CC(C)[C@H](NS(=O)(=O)C1CC1)C(=O)N1C[C@H]2[C@@H]([C@H]1C(=O)N[C@@H](C[C@@H]1CCNC1=O)C(=O)c1nc3ccccc3s1)C2(C)C [Example 10, (1R,2S,5S)-N-{(2S)-1-(1,3-benzothiazol-2-yl)-1-oxo-3-[(3S)-2-oxopyrrolidin-3-yl]propan-2-yl}-3-[N-(cyclopropylsulfonyl)-L-valyl]-6,6-dimethyl-3-azabicyclo[3.1.0]hexane-2-carboxamide] | 19.6 nM | 
CC1(C)C[C@@H](C(=O)N[C@@H](C[C@@H]2CCNC2=O)C(=O)c2nc3ccccc3s2)N(C(=O)[C@H]2CCCO2)C1 [Example 20, N-{(2S)-1-(1,3-benzothiazol-2-yl)-1-oxo-3-[(3S)-2-oxopyrrolidin-3-yl]propan-2-yl}-4,4-dimethyl-1-[(2R)-tetrahydrofuran-2-ylcarbonyl]-L-prolinamide] | > 10800 nM | 
CC(C)(C)C(=O)N[C@H](C(=O)N1C[C@H]2[C@@H]([C@H]1C(=O)N[C@@H](C[C@@H]1CCNC1=O)C(=O)c1nc3ccccc3s1)C2(C)C)C(C)(C)C [Example 17, (1R,2S,5S)-N-{(2S)-1-(1,3-benzothiazol-2-yl)-1-oxo-3-[(3S)-2-oxopyrrolidin-3-yl]propan-2-yl}-3-[N-(2,2-dimethylpropanoyl)-3-methyl-L-valyl]-6,6-dimethyl-3-azabicyclo[3.1.0]hexane-2-carboxamide] | 99.1 nM | 584 nM
CCC(=O)N[C@H](C(=O)N1C[C@H]2[C@@H]([C@H]1C(=O)N[C@@H](C[C@@H]1CCNC1=O)C(=O)c1nc3ccccc3s1)C2(C)C)C(C)(C)C [Example 15, (1R,2S,5S)-N-{(2S)-1-(1,3-benzothiazol-2-yl)-1-oxo-3-[(3S)-2-oxopyrrolidin-3-yl]propan-2-yl}-6,6-dimethyl-3-(3-methyl-N-propanoyl-L-valyl)-3-azabicyclo[3.1.0]hexane-2-carboxamide] | 6.14 nM | 
CC(C)(C)OC(=O)N[C@H](C(=O)N1C[C@H]2[C@@H]([C@H]1C(=O)N[C@@H](C[C@@H]1CCNC1=O)C(=O)c1nc3ccccc3s1)C2(C)C)C(C)(C)C [Example 6, tert-Butyl {(2S)-1-[(1R,2S,5S)-2-({(2S)-1-(1,3-benzothiazol-2-yl)-1-oxo-3-[(3S)-2-oxopyrrolidin-3-yl]propan-2-yl}carbamoyl)-6,6-dimethyl-3-azabicyclo[3.1.0]hexan-3-yl]-3,3-dimethyl-1-oxobutan-2-yl}carbamate] | 137 nM | 492 nM
CC(C)C(=O)N[C@H](C(=O)N1C[C@H]2[C@@H]([C@H]1C(=O)N[C@@H](C[C@@H]1CCNC1=O)C(=O)c1nc3ccccc3s1)C2(C)C)C(C)(C)C [Example 14, (1R,2S,5S)-N-{(2S)-1-(1,3-benzothiazol-2-yl)-1-oxo-3-[(3S)-2-oxopyrrolidin-3-yl]propan-2-yl}-6,6-dimethyl-3-[3-methyl-N-(2-methylpropanoyl)-L-valyl]-3-azabicyclo[3.1.0]hexane-2-carboxamide] | 6.02 nM | 
CC(C)(C)[C@H](NS(C)(=O)=O)C(=O)N1C[C@H]2[C@@H]([C@H]1C(=O)N[C@@H](C[C@@H]1CCNC1=O)C(=O)c1nc3ccccc3s1)C2(C)C [Example 18, (1R,2S,5S)-N-{(2S)-1-(1,3-benzothiazol-2-yl)-1-oxo-3-[(3S)-2-oxopyrrolidin-3-yl]propan-2-yl}-6,6-dimethyl-3-[3-methyl-N-(methylsulfonyl)-L-valyl]-3-azabicyclo[3.1.0]hexane-2-carboxamide] | 1.55 nM | 129 nM
CC(=O)N[C@H](C(=O)N1C[C@H]2[C@@H]([C@H]1C(=O)N[C@@H](C[C@@H]1CCNC1=O)C(=O)c1nc3ccccc3s1)C2(C)C)C(C)(C)C [Example 19, (1R,2S,5S)-3-(N-acetyl-3-methyl-L-valyl)-N-{(2S)-1-(1,3-benzothiazol-2-yl)-1-oxo-3-[(3S)-2-oxopyrrolidin-3-yl]propan-2-yl}-6,6-dimethyl-3-azabicyclo[3.1.0]hexane-2-carboxamide] | 9.77 nM | 1330 nM
CC(C)[C@H](NS(C)(=O)=O)C(=O)N1C[C@H]2[C@@H]([C@H]1C(=O)N[C@@H](C[C@@H]1CCNC1=O)C(=O)c1nc3c(C(F)(F)F)cccc3s1)C2(C)C [Example 4, (1R,2S,5S)-6,6-Dimethyl-3-[N-(methylsulfonyl)-L-valyl]-N-{(2S)-1-oxo-3-[(3S)-2-oxopyrrolidin-3-yl]-1-[4-(trifluoromethyl)-1,3-benzothiazol-2-yl]propan-2-yl}-3-azabicyclo[3.1.0]hexane-2-carboxamide] | 7.74 nM | 
